# Active and inactive are the calls of the source. No cut-off for these calls is given here.
# Legend:
# Calf thymus DNA [1] = assay: Binding affinity to calf thymus DNA assessed as change in melting temperature at 10 uM; format: nucleic-acid assay; settings: Bos taurus
# [2] = Cytotoxicity against human HL60/MX2 cells after 72 hrs by MTT assay; format: functional, cell-based; settings: HL60/MX2, 72 h
# Nucleic Acid [3] = assay: Binding affinity to [poly(dAdT)]2 DNA assessed as change in melting temperature at 10 uM; format: nucleic-acid assay
# HL-60 = assay: Cytotoxicity against human topoisomerase 2-sensitive HL60 cells after 72 hrs by MTT assay; format: functional, cell-based; settings: HL-60, 72 h
# Calf thymus DNA [4] = assay: Binding affinity to calf thymus DNA assessed as change in melting temperature at 20 uM; format: nucleic-acid assay; settings: Bos taurus
# Nucleic Acid [5] = assay: Binding affinity to [poly(dAdT)]2 DNA assessed as change in melting temperature at 20 uM; format: nucleic-acid assay
# [6] = target: T1, DNA topoisomerase 1 (Homo sapiens) (UniProt P11387); assay: Inhibition of human topoisomerase 1-mediated relaxation of pUC18 DNA assessed as formation of nicked DNA up to 50 uM using ethidium bromide staining by agarose gel electrophoresis
# T1 sequence (whole entry): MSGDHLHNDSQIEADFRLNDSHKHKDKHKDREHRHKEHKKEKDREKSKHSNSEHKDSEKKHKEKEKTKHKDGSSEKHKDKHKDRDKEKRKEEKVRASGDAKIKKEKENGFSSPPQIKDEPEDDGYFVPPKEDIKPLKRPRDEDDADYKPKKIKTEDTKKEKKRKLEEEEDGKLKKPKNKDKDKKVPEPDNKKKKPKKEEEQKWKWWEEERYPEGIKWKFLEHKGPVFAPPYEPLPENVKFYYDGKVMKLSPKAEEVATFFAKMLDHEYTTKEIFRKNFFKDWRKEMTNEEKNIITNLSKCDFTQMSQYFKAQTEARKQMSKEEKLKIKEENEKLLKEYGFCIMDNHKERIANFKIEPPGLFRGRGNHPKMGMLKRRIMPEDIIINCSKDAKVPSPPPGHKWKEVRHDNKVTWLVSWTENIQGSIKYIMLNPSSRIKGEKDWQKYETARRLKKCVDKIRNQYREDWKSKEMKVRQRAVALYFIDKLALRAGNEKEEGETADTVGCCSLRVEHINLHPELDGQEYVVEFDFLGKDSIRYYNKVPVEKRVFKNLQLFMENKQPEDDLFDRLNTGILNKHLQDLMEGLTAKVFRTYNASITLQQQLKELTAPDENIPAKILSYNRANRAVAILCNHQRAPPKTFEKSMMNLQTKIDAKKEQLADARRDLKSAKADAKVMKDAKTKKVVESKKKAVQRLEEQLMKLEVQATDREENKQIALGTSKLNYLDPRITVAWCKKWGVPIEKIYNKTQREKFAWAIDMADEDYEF
# [7] = target: DNA topoisomerase 2-alpha (Homo sapiens) (UniProt P11388); assay: Inhibition of human topoisomerase 2-mediated relaxation of pUC18 DNA assessed as formation of nicked DNA at 50 uM using ethidium bromide staining by agarose gel electrophoresis
# Sequence of DNA topoisomerase 2-alpha (Homo sapiens) (P11388 whole entry): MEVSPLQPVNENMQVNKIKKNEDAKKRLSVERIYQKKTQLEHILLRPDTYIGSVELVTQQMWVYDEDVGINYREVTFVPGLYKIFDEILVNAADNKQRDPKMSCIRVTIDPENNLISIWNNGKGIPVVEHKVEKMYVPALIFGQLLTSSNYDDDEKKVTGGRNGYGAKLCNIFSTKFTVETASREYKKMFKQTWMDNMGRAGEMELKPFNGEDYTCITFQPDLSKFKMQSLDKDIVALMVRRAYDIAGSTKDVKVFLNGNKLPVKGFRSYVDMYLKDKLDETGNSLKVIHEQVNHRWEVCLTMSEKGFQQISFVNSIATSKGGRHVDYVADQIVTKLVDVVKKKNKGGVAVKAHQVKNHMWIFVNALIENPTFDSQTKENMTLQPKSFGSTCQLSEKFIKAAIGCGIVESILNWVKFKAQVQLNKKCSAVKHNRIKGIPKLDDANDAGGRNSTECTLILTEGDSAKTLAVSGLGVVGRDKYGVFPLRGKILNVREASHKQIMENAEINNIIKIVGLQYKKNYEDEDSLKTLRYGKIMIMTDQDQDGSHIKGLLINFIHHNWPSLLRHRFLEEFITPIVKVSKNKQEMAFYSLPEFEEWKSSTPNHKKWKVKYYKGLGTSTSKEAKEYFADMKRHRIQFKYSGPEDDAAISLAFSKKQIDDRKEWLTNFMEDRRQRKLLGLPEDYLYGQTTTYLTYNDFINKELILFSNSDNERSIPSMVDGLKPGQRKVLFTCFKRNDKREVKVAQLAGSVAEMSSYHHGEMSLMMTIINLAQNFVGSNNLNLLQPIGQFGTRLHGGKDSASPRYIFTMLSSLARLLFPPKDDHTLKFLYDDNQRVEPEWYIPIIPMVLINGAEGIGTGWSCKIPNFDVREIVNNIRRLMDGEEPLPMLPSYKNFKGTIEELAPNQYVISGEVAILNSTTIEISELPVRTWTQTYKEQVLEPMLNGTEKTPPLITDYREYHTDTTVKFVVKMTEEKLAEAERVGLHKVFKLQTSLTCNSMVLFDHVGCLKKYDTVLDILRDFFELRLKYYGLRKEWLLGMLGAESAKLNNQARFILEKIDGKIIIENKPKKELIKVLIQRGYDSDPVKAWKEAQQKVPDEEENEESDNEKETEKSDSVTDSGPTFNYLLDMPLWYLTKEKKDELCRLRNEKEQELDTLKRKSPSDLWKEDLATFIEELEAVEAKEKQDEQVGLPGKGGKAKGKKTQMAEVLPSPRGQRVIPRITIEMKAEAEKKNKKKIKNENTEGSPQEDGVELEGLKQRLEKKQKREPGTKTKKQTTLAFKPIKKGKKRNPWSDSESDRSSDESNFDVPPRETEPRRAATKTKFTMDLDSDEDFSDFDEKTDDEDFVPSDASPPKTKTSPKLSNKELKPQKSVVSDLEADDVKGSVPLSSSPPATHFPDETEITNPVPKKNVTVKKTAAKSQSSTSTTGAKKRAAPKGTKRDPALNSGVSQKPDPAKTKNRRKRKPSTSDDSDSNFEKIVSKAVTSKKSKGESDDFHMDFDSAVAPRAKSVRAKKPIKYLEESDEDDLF
compound,measurement,setting,value
CCn1c2ccccc2c2c3c(=O)[nH]c(NCCN(C)C)nc3ccc21,ΔTm,Calf thymus DNA [1],3 °C
same,IC50,[2],17 µM
same,ΔTm,Nucleic Acid [3],15.9 °C
same,IC50,HL-60,17 µM
same,ΔTm,Calf thymus DNA [4],2.3 °C
same,ΔTm,Nucleic Acid [5],15.4 °C
same,inhibition,[6],inactive
CN(C)CCNc1nc2c([nH]c3ccccc32)c(=O)[nH]1,ΔTm,Calf thymus DNA [1],0.4 °C
same,IC50,[2],> 100 µM
same,inhibition,[7],10%
same,ΔTm,Nucleic Acid [3],4.4 °C
same,IC50,HL-60,> 100 µM
same,ΔTm,Calf thymus DNA [4],0 °C
same,ΔTm,Nucleic Acid [5],3 °C
same,inhibition,[6],inactive
COc1cc([C@@H]2c3cc4c(cc3[C@@H](O[C@@H]3O[C@@H]5CO[C@@H](C)O[C@H]5[C@H](O)[C@H]3O)[C@H]3COC(=O)[C@H]23)OCO4)cc(OC)c1O [ETOPOSIDE],ΔTm,Calf thymus DNA [1],0 °C
same,IC50,[2],11.9 µM
same,ΔTm,Nucleic Acid [3],0 °C
same,IC50,HL-60,1.3 µM
same,ΔTm,Calf thymus DNA [4],0 °C
same,ΔTm,Nucleic Acid [5],0 °C
